Test results: patent US10202418B2, “Hydroxy-ethylene derivatives for the treatment of arthrosis” (MERCK PATENT GMBH, priority 2013, dated 2019)
Starred links: 1 amine or outer side, 2 acyl side, 3 side chain; linkers in the order of their positions; H or OH if unused. Non-standard residues stand in square brackets, D forms with d. Residues, ends and D or L forms follow the SMILES beside them. *: point of attachment. Hexanoyl(5S-NH,4S-OH,6-Ph) = O=C(CC[C@H](O)[C@H](Cc1ccccc1)N[*:1])[*:2]; Isovaleryl = CC(C)CC(=O)*

How the values were obtained:
recombinant human renin = recombinant human renin (Homo sapiens (Human), UniProt P00797); experiment: In-vitro fluorescence assay for identification of renin-inhibitory activity; assay type: biochemical; conditions: renin 10 nM, pH 7.2
Sequence of recombinant human renin (P00797 67-406): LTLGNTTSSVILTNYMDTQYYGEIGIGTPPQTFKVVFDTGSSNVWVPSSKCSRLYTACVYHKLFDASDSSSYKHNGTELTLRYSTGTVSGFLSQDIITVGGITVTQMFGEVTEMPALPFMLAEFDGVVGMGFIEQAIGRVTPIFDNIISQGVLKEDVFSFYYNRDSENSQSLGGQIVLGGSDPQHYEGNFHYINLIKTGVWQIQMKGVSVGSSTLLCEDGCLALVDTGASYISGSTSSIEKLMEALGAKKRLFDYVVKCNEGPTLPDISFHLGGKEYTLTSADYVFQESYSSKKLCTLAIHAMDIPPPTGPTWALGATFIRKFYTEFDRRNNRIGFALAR
Method: In order to identify modulators of renin activity, a continuous enzymatic test was carried out with a synthetic peptide which carries a fluorescent group Edans (=(5-(aminoethyl)aminonaphthalenesulfonate) which is quenched by energy transfer from a Dabcyl (4′-dimethylaminoazobenzene-4-carboxylate) group on the same molecule, in Greiner 384-well microtitre plates. Cleavage of the peptidic substrate by renin causes an increase in the fluorescence intensity. In order to determine the efficacy of substances, the time-dependent increase in the fluorescence intensity in the presence of the substance was compared with the time-dependent increase in fluorescence in the absence of substances. The reference substance used was renin inhibitor 2 (Z-Arg-Arg-Pro-Phe-His-Sta-Ile-His N-Boc-Lys methyl ester Z) (Sigma-Aldrich). The substrate used was renin FRET substrate I (DABCYL-g-Abu-Ile-His-Pro-Phe-His-Leu-Val-Ile-His-Thr EDANS) (Anaspec, Fremont Calif.). The enzyme employed was recombinant human renin (Proteos, Kalamazoo, Mich.) in a final concentration of 10 nM. The test was carried out in 50 mM Mops buffer, 1.5% (v/v) of DMSO, 0.1% (w/v) of Igepal®, pH 7.2, 0.5% (w/v) of BSA. 2 μl of each substance solution with serially diluted substance concentration were added to in each case 4 μl of renin solution and incubated at room temperature for 15 min. The reaction was started by addition of 4 μl of substrate solution (final concentration 5 μM). After carrying out a starting-point fluorescence measurement (excitation wavelength 340 nm/emission wavelength 495 nm) using an Envision multilabel reader (Perkin Elmer), the reaction was incubated at 37° C. for 60 min. The amount of peptide fragment cleaved off during the reaction time was subsequently measured by determination of the increase in the fluorescence intensity at 495 nm (excitation wavelength 340 nm).

[1] = molecular target: cathepsin D isolated from the human liver (Homo sapiens (Human), UniProt P07339); experiment: In-vitro fluorescence assay for identification of cathepsin D inhibitors; assay type: biochemical; conditions: cathepsin D 1.4 nM, pH 5.5; values in E notation; read-out: Cath D IC50
Sequence of cathepsin D isolated from the human liver (P07339 65-161): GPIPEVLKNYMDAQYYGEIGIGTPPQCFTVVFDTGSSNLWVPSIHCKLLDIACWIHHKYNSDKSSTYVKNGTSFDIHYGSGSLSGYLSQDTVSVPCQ
Sequence of cathepsin D isolated from the human liver (P07339 169-412): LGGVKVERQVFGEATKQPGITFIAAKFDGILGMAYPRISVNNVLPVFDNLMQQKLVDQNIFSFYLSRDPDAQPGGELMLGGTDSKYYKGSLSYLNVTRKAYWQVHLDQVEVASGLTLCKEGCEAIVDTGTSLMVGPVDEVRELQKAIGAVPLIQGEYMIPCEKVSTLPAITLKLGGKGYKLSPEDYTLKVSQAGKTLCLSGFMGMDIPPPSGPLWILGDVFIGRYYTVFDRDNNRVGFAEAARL
Method: In order to identify modulators of cathepsin D activity, a continuous enzymatic test was carried out with a synthetic peptide which carries a fluorescent group (MCA=(7-methoxycoumarin-4-yl)acetyl) which is quenched by energy transfer from a Dpn (2,4 dinitrophenyl) group on the same molecule, in Greiner 384-well nb microtitre plates. Cleavage of the peptidic substrate by cathepsin D causes an increase in the fluorescence intensity. In order to determine the efficacy of substances, the time-dependent increase in the fluorescence intensity in the presence of the substance was compared with the time-dependent increase in fluorescence in the absence of substances. The reference substance used was pepstatin A (Sigma-Aldrich). The substrate used was MCA-GKPILFFRLK(Dnp)d-R—NH2 (Enzo Life Sciences, Lor-rach). The enzyme employed was cathepsin D isolated from the human liver (Sigma-Aldrich) in a final concentration of 1.4 nM. The test was carried out in 100 mM sodium acetate buffer, 1.25% (v/v) of DMSO, 0.25% (w/v) of Chaps, pH 5.5. 2 μl of each substance solution with serially diluted substance concentration were added to in each case 4 μl of cathepsin D solution and incubated at room temperature for 10 min. The reaction was started by addition of 2 μl of substrate solution (final concentration 5 μM). After carrying out a starting-point fluorescence measurement (excitation wavelength 340 nm/emission wavelength 450 nm) using an Envision multilabel reader (Perkin Elmer), the reaction was incubated at room temperature for 60 min. The amount of peptide fragment cleaved off during the reaction time was subsequently measured by determination of the increase in the fluorescence intensity at 450 nm (excitation wavelength 340 nm).
The IC50 values of the compounds according to the invention can be obtained from Table 2 from Example 1.

Row | IC50 (recombinant human renin) | Compound | IC50 (recombinant human renin; values in E notation) | IC50 [1]
1 | > 30 µM | Cc1cccc(C)c1NC(=O)CC[C@H](O)[C@H](Cc1ccccc1)NC(=O)[C@@H](NC(=O)Cc1cccc(Oc2ccccc2)c1)C(C)C [Compound A14, (4S,5S)-4-Hydroxy-5-{(S)-3-methyl-2-[2-(3-phenoxyphenyl)acetylamino]-butyrylamino}-6-phenylhexanoic acid (2,6-dimethylphenyl)amide] | – | –
2 | > 30 µM | COc1ccc(CC(=O)N[C@H](C(=O)N[C@@H](Cc2ccccc2)[C@@H](O)CCC(=O)NCCc2ccccc2)C(C)C)cc1OC [Compound A5, (4S,5S)-5-{(S)-2-[2-(3,4-Dimethoxyphenyl)acetylamino]-3-methylbutyryl-amino}-4-hydroxy-6-phenylhexanoic acid phenethylamide] | – | –
3 | > 30 µM | COc1ccccc1CC(=O)N[C@H](C(=O)N[C@@H](Cc1ccccc1)[C@@H](O)CCC(=O)NCCc1ccccc1)C(C)C [Compound A9, (4S,5S)-4-Hydroxy-5-{(S)-2-[2-(2-methoxyphenyl)acetylamino]-3-methyl-butyrylamino}-6-phenylhexanoic acid phenethylamide] | – | –
4 | – | CC[C@H](C)[C@H](NC(=O)CC[C@H](O)[C@H](Cc1ccccc1)NC(=O)[C@@H](NC(=O)[C@H](CC(C)C)NC(=O)OC(C)(C)C)C(C)C)C(=O)NCc1cnc(C)nc1N [Compound A1, {(S)-1-[(S)-1-((1S,2S)-4-{(1S,2S)-1-[(4-Amino-2-methylpyrimidin-5-yl-methyl)carbamoyl]-2-methylbutylcarbamoyl}-1-benzyl-2-hydroxybutyl-carbamoyl)-2-methylpropylcarbamoyl]-3-methylbutyl}carbamic acid tert-butyl ester] | 0.32 µM | 0.43 µM
5 | > 30 µM | COc1ccc(CC(=O)N[C@H](C(=O)N[C@@H](Cc2ccccc2)[C@@H](O)CCC(=O)NCCc2ccccc2)C(C)C)cc1 [Compound A7, (4S,5S)-4-Hydroxy-5-{(S)-2-[2-(4-methoxyphenyl)acetylamino]-3-methyl-butyrylamino}-6-phenylhexanoic acid phenethylamide] | – | –
6 | > 30 µM | CC[C@H](C)[C@H](NC(=O)CC[C@H](O)[C@H](Cc1ccccc1)NC(=O)[C@@H](NC(=O)Cc1cccc(OC(F)(F)F)c1)C(C)C)C(=O)N[C@H](C(=O)O)C(C)C [Compound A22, (S)-2-[(2S,3S)-2-((4S,5S)-4-Hydroxy-5-{(S)-3-methyl-2-[2-(3-trifluoro-methoxyphenyl)acetylamino]butyrylamino}-6-phenylhexanoylamino)-3-methylpentanoylamino]-3-methylbutyric acid] | – | 0.35 µM
7 | > 30 µM | COc1ccc(OC(F)(F)F)cc1CC(=O)N[C@H](C(=O)N[C@@H](Cc1ccccc1)[C@@H](O)CCC(=O)NCCc1ccccc1)C(C)C [Compound A4, (4S,5S)-4-Hydroxy-5-{(S)-2-[2-(2-methoxy-5-trifluoromethoxyphenyl)-acetylamino]-3-methylbutyrylamino}-6-phenylhexanoic acid phenethyl-amide] | – | 4 µM
8 | > 30 µM | CCOc1cccc(CC(=O)N[C@H](C(=O)N[C@@H](Cc2ccccc2)[C@@H](O)CCC(=O)NCCc2ccccc2)C(C)C)c1 [Compound A19, (4S,5S)-5-{(S)-2-[2-(3-Ethoxyphenyl)acetylamino]-3-methylbutyrylamino}-4-hydroxy-6-phenylhexanoic acid phenethylamide] | – | –
9 | > 30 µM | CC(C)[C@H](NC(=O)CCCc1ccccc1)C(=O)N[C@@H](Cc1ccccc1)[C@@H](O)CCC(=O)NCCc1ccccc1 [Compound A20, (4S,5S)-4-Hydroxy-5-[(S)-3-methyl-2-(4-phenylbutyrylamino)butyryl-amino]-6-phenylhexanoic acid phenethylamide] | – | –
10 | > 30 µM | CC(C)[C@H](NC(=O)Cc1cccc(Oc2ccccc2)c1)C(=O)N[C@@H](Cc1ccccc1)[C@@H](O)CCC(=O)N1CCc2ccccc21 [Compound A16, (S)-N-[(1S,2S)-1-Benzyl-5-(2,3-dihydroindol-1-yl)-2-hydroxy-5-oxopentyl]-3-methyl-2-[2-(3-phenoxyphenyl)acetylamino]butyramide] | – | –
11 | > 30 µM | CC(C)[C@H](NC(=O)Cc1cccc(Oc2ccccc2)c1)C(=O)N[C@@H](Cc1ccccc1)[C@@H](O)CCC(=O)NCc1ccccc1 [Compound A15, (4S,5S)-4-Hydroxy-5-{(S)-3-methyl-2-[2-(3-phenoxyphenyl)acetylamino]-butyrylamino}-6-phenylhexanoic acid benzylamide] | – | –
12 | – | CC[C@H](C)[C@H](NC(=O)CC[C@H](O)[C@H](Cc1ccccc1)NC(=O)[C@@H](NC(=O)[C@H](CC(C)C)NC(=O)CC(C)C)C(C)C)C(=O)N[C@H](C(=O)O)C(C)C [Compound A21, (S)-2-[(2S,3S)-2-((4S,5S)-4-Hydroxy-5-{(S)-3-methyl-2-[(S)-4-methyl-2-(3-methylbutyrylamino)pentanoylamino]butyrylamino}-6-phenylhexanoyl-amino)-3-methylpentanoylamino]-3-methylbutyric acid] (Isovaleryl-LV[Hexanoyl(5S-NH,4S-OH,6-Ph)]IV-OH) | 12 µM | 0.024 µM
13 | > 30 µM | CC(C)[C@H](NC(=O)Cc1cccc(OC(F)(F)F)c1)C(=O)N[C@@H](Cc1ccccc1)[C@@H](O)CCC(=O)NCCc1ccccc1 [Compound A3, (4S,5S)-4-Hydroxy-5-{(S)-3-methyl-2-[2-(3-trifluoromethoxyphenyl)-acetylamino]butyrylamino}-6-phenylhexanoic acid phenethylamide] | – | –
14 | > 30 µM | CC(C)[C@H](NC(=O)Cc1cccc2ccccc12)C(=O)N[C@@H](Cc1ccccc1)[C@@H](O)CCC(=O)NCCc1ccccc1 [Compound A12, (4S,5S)-4-Hydroxy-5-[(S)-3-methyl-2-(2-naphthalen-1-ylacetylamino)-butyrylamino]-6-phenylhexanoic acid phenethylamide] | – | –
15 | > 30 µM | CC(C)[C@H](NC(=O)C(c1ccccc1)c1ccccc1)C(=O)N[C@@H](Cc1ccccc1)[C@@H](O)CCC(=O)NCCc1ccccc1 [Compound A13, (4S,5S)-5-((S)-2-Diphenylacetylamino-3-methylbutyrylamino)-4-hydroxy-6-phenylhexanoic acid phenethylamide] | – | 4.3 µM
16 | > 30 µM | Cc1ccc(OCC(=O)N[C@H](C(=O)N[C@@H](Cc2ccccc2)[C@@H](O)CCC(=O)NCCc2ccccc2)C(C)C)cc1C [Compound A10, (4S,5S)-5-{(S)-2-[2-(3,4-Dimethylphenoxy)acetylamino]-3-methylbutyryl-amino}-4-hydroxy-6-phenylhexanoic acid phenethylamide] | – | –
17 | > 30 µM | COc1cccc(CC(=O)N[C@H](C(=O)N[C@@H](Cc2ccccc2)[C@@H](O)CCC(=O)NCCc2ccccc2)C(C)C)c1 [Compound A8, (4S,5S)-4-Hydroxy-5-{(S)-2-[2-(3-methoxyphenyl)acetylamino]-3-methyl-butyrylamino}-6-phenylhexanoic acid phenethylamide] | – | –

Row | Compound | IC50 (recombinant human renin) | IC50 (recombinant human renin; values in E notation) | IC50 [1]
18 | COC(=O)[C@@H](NC(=O)[C@H](Cc1ccccc1)NC(=O)CC[C@H](O)[C@H](Cc1ccccc1)NC(=O)[C@@H](NC(=O)[C@H](CC(C)C)NC(=O)CC(C)C)C(C)C)C(C)C [Compound A17, (S)-2-[(S)-2-((4S,5S)-4-Hydroxy-5-{(S)-3-methyl-2-[(S)-4-methyl-2-(3-methylbutyrylamino)pentanoylamino]butyrylamino}-6-phenylhexanoyl-amino)-3-phenylpropionylamino]-3-methylbutyric acid methyl ester] (Isovaleryl-LV[Hexanoyl(5S-NH,4S-OH,6-Ph)]FV-OMe) | > 30 µM | – | 0.255 µM
